These results are taken from patent US9783536B2, “Nitrogen-containing heterocyclic compound or salt thereof” (FUJIFILM Corporation, priority 2013, dated 2017).

Bounds are passed on as bounds.

In assay [1] the target is T1, GST fusion human ERK2 protein (Homo sapiens, UniProt P28482).
T1 construct: purchased Carna Biosciences, Inc; host or cells: E. coli expression system
Briefly: ERK2 enzyme assay (1). It counts as biochemical. The note with it: 2.5 nmol/L ERK2, ATP 43.1 μmol/L; read-out: ERK2 enzyme inhibitory activity (1). Put shortly: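 IC50 derived from the proportion of phosphorylated 5-FAM peptide, separated from unphosphorylated peptide by microfluidic mobility shift. Compound was first preincubated 15 min at room temperature with 2.5 nmol/L kinase at pH 7.5, then 43.1 μmol/L ATP plus 4.25 μmol/L substrate reacted 120 min at 25 °C.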

In a further assay the target is T2, human PI3Kα protein (Homo sapiens, UniProt P42336).
T2 construct: purchased Carna Biosciences, Inc; host or cells: baculovirus expression system
T2 sequence (P42336 whole entry): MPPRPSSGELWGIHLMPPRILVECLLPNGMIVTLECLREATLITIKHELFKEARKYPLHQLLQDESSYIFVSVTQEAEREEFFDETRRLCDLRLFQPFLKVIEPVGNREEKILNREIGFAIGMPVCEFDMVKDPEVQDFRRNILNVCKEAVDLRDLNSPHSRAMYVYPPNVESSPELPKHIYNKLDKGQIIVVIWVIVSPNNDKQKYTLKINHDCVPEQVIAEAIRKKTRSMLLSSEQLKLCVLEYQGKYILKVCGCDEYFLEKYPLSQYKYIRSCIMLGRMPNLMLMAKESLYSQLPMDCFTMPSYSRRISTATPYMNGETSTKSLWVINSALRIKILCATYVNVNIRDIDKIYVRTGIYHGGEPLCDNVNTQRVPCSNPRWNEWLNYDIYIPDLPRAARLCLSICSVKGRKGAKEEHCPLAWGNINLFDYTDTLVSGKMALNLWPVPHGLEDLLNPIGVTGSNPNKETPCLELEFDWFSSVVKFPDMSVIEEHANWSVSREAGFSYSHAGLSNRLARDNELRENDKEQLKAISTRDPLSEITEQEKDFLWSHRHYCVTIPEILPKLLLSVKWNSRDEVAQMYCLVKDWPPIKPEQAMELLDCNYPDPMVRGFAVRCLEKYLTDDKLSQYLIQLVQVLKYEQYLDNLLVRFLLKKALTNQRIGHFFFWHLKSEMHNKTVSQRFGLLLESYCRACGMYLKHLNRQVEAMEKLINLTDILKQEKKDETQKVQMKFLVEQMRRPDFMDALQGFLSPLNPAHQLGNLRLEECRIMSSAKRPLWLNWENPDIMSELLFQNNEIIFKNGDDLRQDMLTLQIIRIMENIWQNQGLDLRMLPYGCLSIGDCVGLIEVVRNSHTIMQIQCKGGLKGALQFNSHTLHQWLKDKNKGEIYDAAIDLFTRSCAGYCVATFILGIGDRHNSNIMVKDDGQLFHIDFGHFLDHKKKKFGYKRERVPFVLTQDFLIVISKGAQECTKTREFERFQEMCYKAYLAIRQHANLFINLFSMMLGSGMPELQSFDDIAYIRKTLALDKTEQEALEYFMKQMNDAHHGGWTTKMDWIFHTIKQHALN
T2 sequence (P27986 whole entry partner): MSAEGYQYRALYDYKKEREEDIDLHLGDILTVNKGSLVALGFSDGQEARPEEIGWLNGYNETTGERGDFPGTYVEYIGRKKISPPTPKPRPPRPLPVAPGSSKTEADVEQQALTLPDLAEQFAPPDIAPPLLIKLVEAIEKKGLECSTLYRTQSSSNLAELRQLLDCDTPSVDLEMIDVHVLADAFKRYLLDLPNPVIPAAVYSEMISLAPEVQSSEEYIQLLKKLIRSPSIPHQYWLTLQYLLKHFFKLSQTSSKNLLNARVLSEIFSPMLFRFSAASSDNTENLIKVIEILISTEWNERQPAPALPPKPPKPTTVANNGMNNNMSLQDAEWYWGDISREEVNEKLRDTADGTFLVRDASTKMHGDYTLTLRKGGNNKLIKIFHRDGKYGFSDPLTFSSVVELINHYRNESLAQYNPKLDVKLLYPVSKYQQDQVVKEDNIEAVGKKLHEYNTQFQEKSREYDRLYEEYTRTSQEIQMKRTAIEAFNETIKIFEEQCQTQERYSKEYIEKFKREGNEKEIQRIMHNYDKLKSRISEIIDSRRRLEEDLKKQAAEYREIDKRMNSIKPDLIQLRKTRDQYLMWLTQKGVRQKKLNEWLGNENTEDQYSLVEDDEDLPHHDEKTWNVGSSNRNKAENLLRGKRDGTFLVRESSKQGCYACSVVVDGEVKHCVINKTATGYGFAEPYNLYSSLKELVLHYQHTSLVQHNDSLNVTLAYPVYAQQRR
Nature of the assay: PI3Kα enzyme assay (ADP-Glo). It counts as biochemical. Particulars: 4.5 nmol/L PI3Kα, PIP2 50 μmol/L, ATP 100 μmol/L; read-out: PI3Kα enzyme inhibitory activity. The gist of the method:
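Biotinylated human PI3Kα (baculovirus-expressed, 4.5 nmol/L) pre-incubated 15 min with compound in Tris-HCl pH 7.5, MgCl2, BSA; reaction 60 min at 25° C with 50 μmol/L PIP2 and 100 μmol/L ATP final. ADP quantified by ADP-Glo luminescence; IC50 calculated.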
(In general: In ADP-Glo the light output rises with the ADP produced.)

T1 sequence (P28482 whole entry, the tested form may be a part): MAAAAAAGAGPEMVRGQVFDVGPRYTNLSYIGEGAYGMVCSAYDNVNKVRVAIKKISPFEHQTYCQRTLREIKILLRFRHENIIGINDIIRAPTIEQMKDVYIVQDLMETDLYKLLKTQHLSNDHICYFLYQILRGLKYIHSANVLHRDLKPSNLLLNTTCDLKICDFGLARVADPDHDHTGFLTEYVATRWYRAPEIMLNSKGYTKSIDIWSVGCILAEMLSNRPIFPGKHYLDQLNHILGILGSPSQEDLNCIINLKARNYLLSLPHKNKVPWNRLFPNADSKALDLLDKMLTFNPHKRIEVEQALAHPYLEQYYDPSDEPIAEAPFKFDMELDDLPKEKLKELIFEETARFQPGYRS

In the case of `Cc1ncc(Nc2cnc3ccc(Nc4nnc(C5CCCC5)s4)nc3c2)cc1-n1nccn1` [Example 0074], the IC50 (in assay [1]; on human PI3Kα protein) was below 1000 nM each time.
Consider `c1ccc2c(Nc3cnc4ccc(Nc5nnc(C6CCCC6)s5)nc4c3)cncc2c1` [Example 0075], for which the figures for the IC50 (in assay [1]; on human PI3Kα protein) were 1000 to 10000 nM and below 1000 nM, respectively.
The matching figures for `CC(=O)N1CCCC(Nc2cnc3ccc(Nc4nnc(C5CCCC5)s4)nc3c2)C1` (stereo not drawn) [Example 0076]: below 1000 nM and below 1000 nM.
In the same order, the values of `COc1ncccc1Nc1cnc2ccc(Nc3nnc(C4CCCC4)s3)nc2c1` [Example 0077] are 1000 to 10000 nM and 1000 to 10000 nM.
In the same order, the values of `Clc1cc(Nc2cnc3ccc(Nc4nnc(C5CCCC5)s4)nc3c2)cnc1-n1cccn1` [Example 0078] are below 1000 nM and below 1000 nM.
In the case of `Cc1ccncc1Nc1cnc2ccc(Nc3nnc(C4CCCC4)s3)nc2c1` [Example 0079], the IC50 in assay [1] was below 1000 nM; on human PI3Kα protein, 1000 to 10000 nM.
`COc1cc(Nc2cnc3ccc(Nc4nnc(C5CCCC5)s4)nc3c2)cc(OC)c1` [Example 0081]: the figures for the IC50 (in assay [1]; at human PI3Kα protein) were below 1000 nM and 1000 to 10000 nM, respectively.
In the same order, the values of `c1ncc(OCCN2CCOCC2)cc1Nc1cnc2ccc(Nc3nnc(C4CCCC4)s3)nc2c1` [Example 0082] are below 1000 nM and below 1000 nM.
As for `c1ncc(OCCN2CCCC2)cc1Nc1cnc2ccc(Nc3nnc(C4CCCC4)s3)nc2c1` [Example 0083], the IC50 (in assay [1]; at human PI3Kα protein) was below 1000 nM each time.
For `CS(=O)(=O)N1CCC(Nc2cnc3ccc(Nc4nnc(C5CCCC5)s4)nc3c2)CC1` [Example 0098], the IC50 (in assay [1]; at human PI3Kα protein) was below 1000 nM each time.
Regarding `CC(C)c1cncc(Nc2cnc3ccc(Nc4nnc(C5CCCC5)s4)nc3c2)c1` [Example 0099], the IC50 (in assay [1]; on human PI3Kα protein) was below 1000 nM each time.
For the molecule `CC(C)Oc1cncc(Nc2cnc3ccc(Nc4nnc(C5CCCC5)s4)nc3c2)c1` [Example 0100], the IC50 is below 1000 nM in assay [1] and 1000 to 10000 nM at human PI3Kα protein.
Turning to `c1ncc(N2CCCCC2)cc1Nc1cnc2ccc(Nc3nnc(C4CCCC4)s3)nc2c1` [Example 0101], the IC50 (in assay [1]; at human PI3Kα protein) was below 1000 nM in each case.
Regarding `CN1CCN(c2cncc(Nc3cnc4ccc(Nc5nnc(C6CCCC6)s5)nc4c3)c2)CC1` [Example 0102], the IC50 (in assay [1]; at human PI3Kα protein) was below 1000 nM in each case.
As to `CC(C)(C)c1cncc(Nc2cnc3ccc(Nc4nnc(C5CCCC5)s4)nc3c2)c1` [Example 0103], the IC50 (in assay [1]; on human PI3Kα protein) was below 1000 nM throughout.
As for `O=C(c1ccc(Nc2cnc3ccc(Nc4nnc(C5CCCC5)s4)nc3c2)cc1)N1CCOCC1` [Example 0104], the IC50 in assay [1] was below 1000 nM; at human PI3Kα protein, 1000 to 10000 nM.
In the same order, the values of `O=C(Cc1ccc(Nc2cnc3ccc(Nc4nnc(C5CCCC5)s4)nc3c2)cc1)N1CCOCC1` [Example 0105] are below 1000 nM and below 1000 nM.
For `O=C(c1ccc(Nc2cnc3ccc(Nc4nnc(C5CCCC5)s4)nc3c2)cn1)N1CCOCC1` [Example 0106], the IC50 (in assay [1]; on human PI3Kα protein) was below 1000 nM in each case.
For `c1cc(Nc2cnc3ccc(Nc4nnc(C5CCCC5)s4)nc3c2)ccc1CCN1CCOCC1` [Example 0107], the IC50 (in assay [1]; on human PI3Kα protein) was below 1000 nM each time.
`CS(=O)(=O)N1CCC(Nc2cnc3ccc(Nc4nnc(C5CCCC5)s4)nc3c2)C1` (stereo not drawn) [Example 0108]: the IC50 in assay [1] was below 1000 nM; at human PI3Kα protein, 1000 to 10000 nM.
The matching figures for `CS(=O)(=O)N1CCCC(Nc2cnc3ccc(Nc4nnc(C5CCCC5)s4)nc3c2)C1` (stereo not drawn) [Example 0109]: 1000 to 10000 nM and below 1000 nM.
In the same order, the values of `CCc1nn(C)cc1-c1cnc2ccc(Nc3nnc(C4CCCC4)s3)nc2c1` [Example 0110, 5-cyclopentyl-N-(7-(3-ethyl-1-methyl-1H-pyrazol-4-yl)-1,5-naphthyridin-2-yl)-1,3,4-thiadiazole-2-amine] are below 1000 nM and below 1000 nM.
In the same order, the values of `CC(C)c1cnc(Nc2ccc3ncc(-c4cnn(CCCN5CCCC5)c4)cc3n2)s1` [Example 0119] are below 1000 nM and below 1000 nM.
Consider `CC(C)c1cnc(Nc2ccc3ncc(-c4cnn(C)c4)cc3n2)s1` [Example 0123, 5-isopropyl-N-(7-(1-methyl-1H-pyrazol-4-yl)-1,5-naphthyridin-2-yl)thiazole-2-amine], for which the IC50 (in assay [1]; on human PI3Kα protein) was below 1000 nM in each case.
With `CC(C)c1nnc(Nc2ccc3ncc(-c4cn(C)nc4C(C)C)cc3n2)s1` [Example 0125], the IC50 (in assay [1]; on human PI3Kα protein) was below 1000 nM throughout.
For `c1nc2ccc(Nc3ncc(C4CCCC4)s3)nc2cc1-c1cnn(CCCN2CCCC2)c1` [Example 0126, 5-cyclopentyl-N-(7-(1-(3-(pyrrolidin-1-yl)propyl)-1H-pyrazol-4-yl)-1,5-naphthyridin-2-yl)thiazole-2-amine], the IC50 (in assay [1]; on human PI3Kα protein) was below 1000 nM each time.
For the molecule `Cn1cc(-c2cnc3ccc(Nc4ncc(C5CCCC5)s4)nc3c2)cn1` [Example 0127], the IC50 in assay [1] is below 1000 nM; at human PI3Kα protein, 1000 to 10000 nM.
Turning to `CC(C)c1nnc(Nc2ccc3ncc(-c4cn(C)nc4-c4ccccn4)cc3n2)s1` [Example 0136, 5-isopropyl-N-(7-(1-methyl-3-(pyridin-2-yl)-1H-pyrazol-4-yl)-1,5-naphthyridin-2-yl)-1,3,4-thiadiazole-2-amine], the IC50 (in assay [1]; at human PI3Kα protein) was below 1000 nM each time.
Consider `COCc1csc(Nc2ccc3ncc(-c4cnn(C)c4)cc3n2)n1` [Example 0141], for which the IC50 (in assay [1]; on human PI3Kα protein) was 1000 to 10000 nM each time.
Consider `CC(C)Cc1cnc(Nc2ccc3ncc(-c4cnn(C)c4)cc3n2)s1` [Example 0143, 5-isobutyl-N-(7-(1-methyl-1H-pyrazol-4-yl)-1,5-naphthyridin-2-yl)thiazole-2-amine], for which the figures for the IC50 (in assay [1]; at human PI3Kα protein) were below 1000 nM and 1000 to 10000 nM, respectively.
In the same order, the values of `CC(C)Cc1cnc(Nc2ccc3ncc(-c4cnn(CCCN5CCCC5)c4)cc3n2)s1` [Example 0144] are below 1000 nM and below 1000 nM.
Consider `CC(C)OCc1nn(C)cc1-c1cnc2ccc(Nc3nnc(C(C)C)s3)nc2c1` [Example 0146], for which the IC50 (in assay [1]; on human PI3Kα protein) was below 1000 nM in each case.
In the case of `Cn1cc(-c2cnc3ccc(Nc4ccc(Cl)nn4)nc3c2)cn1` [Example 0152], the IC50 was below 1000 nM in assay [1] and 1000 to 10000 nM at human PI3Kα protein.
The matching figures for `CC(C)c1cnnc(Nc2ccc3ncc(-c4cn[nH]c4)cc3n2)c1` [Example 0153]: below 1000 nM and 1000 to 10000 nM.
The matching figures for `Cc1cnnc(Nc2ccc3ncc(-c4cn[nH]c4)cc3n2)c1` [Example 0154]: below 1000 nM and 1000 to 10000 nM.
The matching figures for `Cc1nn(CCCN2CCCC2)cc1-c1cnc2ccc(Nc3cc(C(C)C)cnn3)nc2c1` [Example 0156, N-(5-isopropylpyridazin-3-yl)-7-(3-methyl-1-(3-(pyrrolidin-1-yl)propyl)-1H-pyrazol-4-yl)-1,5-naphthyridine-2-amine]: below 1000 nM and below 1000 nM.
